PMC7665024, “Anti-apoptotic BCL-2 regulation by changes in dynamics of its long unstructured loop” (Communications Biology, 2020)
“Also recorded” adds a separate entry of the source.

Columns and labels:
[1] = system: BAX; test: FRAP-GUV pore-forming activity of BAX, 70-kDa F-dextran;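 as to FRAP pore-forming activity, average: unitless ratio D/D0 relative to diffusion coefficient after Triton X-100 disruption of GUVs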;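 as to FRAP pore-forming activity: unitless ratio D/D0 relative to diffusion coefficient after Triton X-100 disruption of GUVs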; format: biochemical, mouse; design: FRAP pore-forming activity / FRAP pore-forming activity, average / p (FRAP-70k-p), Average: unit not given here; details: for pore-forming activity / effect on BAX-induced membrane pores on GUV (in words): 10- and 70-kDa F-dextran, BAX 1 µM, BimBH3 2 µM, BCL-2 1 µM, ABT-199 30 µM, room temperature, Fig. 2c; for FRAP pore-forming activity, average / FRAP pore-forming activity: 70 kDa F-dextran; for FRAP pore-forming activity, average: mean of trials
Method: (§1) Briefly, GUVs were incubated with the proteins of interest over a period of time (Fig. 2c), followed by photobleaching within individual GUVs. A series of fluorescent images were collected over time after the photobleaching and then analyzed to yield the diffusion coefficients of Fluor molecules (including FITC-labeled 70-kDa, and Alexa-647-labeled 10-kDa probes) using the theoretical approach detailed in the “Methods” section. As Fluor molecules are homogeneously dispersed in the solution (outside and inside of GUVs) before the incubation with BAX and activators, it is reasonable to expect that the larger the induced pore area on the surface of a GUV, the greater the diffusion coefficient. Thus, the diffusion coefficient is directly related to the pore-forming activity of activated BAX. As the pore-forming activity is proportional to the concentration of BAX[18], we fixed the total amount of added BAX in all of the measurements below (see the “Methods” section).
(§2) Full-length BAX and variants were prepared as previously described[18],[22],[35]. Mouse BAX was cloned into pTYB1 vector (New England Biolabs, Inc.), resulting pTYB1-BAX construct. The pTYB1-BAX construct encoding a fusion protein of BAX with chitin-binding peptide was separated by a self-cleavable intein tag to obtain a full-length BAX. Wild-type BAX has two native cysteine residues at 62 and 126. Cysteine-free construct (C62S/C126S) was used to prepare single-cysteine BAX variants for conjugating fluorescence probes (e.g., BAX136C in Fig. 1d). Point mutations of recombinant BAX were generated using a QuikChange mutagenesis kit. Proteins were expressed in E. coli (ER2566) strain (New England Biolabs, Inc.) and purified without detergent. Bacterial cultures were grown at 37 °C in LB medium containing 0.1 g/L ampicillin to reach an OD600 of 1.0. BAX expression was induced by addition of 0.3 mM IPTG at 30 °C for 6−8 h. The cells were harvested by centrifugation and resuspended in ice-cold lysis buffer (20 mM Tris–HCl, pH 7.0, 500 mM NaCl and 1 mM PMSF). The resuspended pellet was sonicated on ice for 30 min, followed by centrifugation at 12,800 × g for 50 min. […] The resins were incubated in a pre-equilibrated buffer (20 mM sodium phosphate, pH 8.0, 100 mM NaCl, 60 mM dithiothreitol (DTT)) for 48 h. Proteins were eluted from column and further purified by a SEC using a HiLoad 16/60 Superdex 75 column (GE Healthcare) pre-equilibrated in PB buffer (20 mM sodium phosphate, pH 7.4, 100 mM NaCl). Purified proteins were confirmed by SDS–PAGE with Coomassie blue staining. Protein concentration was determined using absorption spectroscopy at 280 nm.
(§3) All lipids used were purchased from Avanti Polar Lipids. […] Texas Red 1,2-dihexadecanoyl-sn-glycero-3-phosphoethanolamine (TR-DPPE) (Invitrogen) of 0.05% was added to the lipid mixture for virtualization of GUV[18],[26],[27]. GUVs were prepared with the gel-assisted swelling on a polyvinyl alcohol (PVA) gel[39]. A 5% (w/w) solution of PVA (MW 145,000) was prepared by stirring PVA in ddH2O while heating at 90 °C. PVA solution was spread on a microscope coverslip (18 × 18 mm, Matsunami, Japan) and then dried at 50 °C. Lipid mixture (1 mg/mL) dissolved in chloroform were spread on the dry PVA film and placed under vacuum for 30 min to evaporate the solvent. Lipids were rehydrated for 1 h in PB buffer. The resulting GUVs were transferred to an Eppendorf tube using blunt tips.
(§4) FRAP measurements were performed as described previously. […] All reactions were at room temperature and the final volume was 200 μL.

[2] = system: BAX; test: FRAP-GUV pore-forming activity of BAX, 10-kDa F-dextran; format: biochemical, mouse; design: unit not given here
Method: as §1, §2, §3, §4

[3] = 10 kDa F-dextran, mean of trials

BAX: full-length mouse BAX; in FRET the single-cysteine variant BAX136C labeled with AL488 [reference compound]
pore-forming activity / effect on BAX-induced membrane pores on GUV (in words) [1]: neither BAX nor EEE, in the absence of pro-apoptotic BimBH3, is able to induce large membrane pores on GUV
FRAP pore-forming activity, average [1]: 0.004165
FRAP pore-forming activity ([1]; trial1): 0.0008251
FRAP pore-forming activity ([1]; trial2): 0.006931
FRAP pore-forming activity ([1]; trial3): 0.002475
FRAP pore-forming activity ([1]; trial4): 0.000495
FRAP pore-forming activity ([1]; trial5): 0.00132
FRAP pore-forming activity ([1]; trial6): 0.001155
FRAP pore-forming activity ([1]; trial7): 0.003135
FRAP pore-forming activity ([1]; trial8): 0.001155
FRAP pore-forming activity ([1]; trial9): 0.000495
FRAP pore-forming activity ([1]; trial10): 0.0008251
FRAP pore-forming activity ([1]; trial11): 0.00264
FRAP pore-forming activity ([1]; trial12): 0.00231
FRAP pore-forming activity ([1]; trial13): 0.002145
FRAP pore-forming activity ([1]; trial14): 0.005776
FRAP pore-forming activity ([1]; trial15): 0.000165
FRAP pore-forming activity ([1]; trial16): 0.000495
FRAP pore-forming activity ([1]; trial17): 0.01485
FRAP pore-forming activity ([1]; trial18): 0.0132
FRAP pore-forming activity ([1]; trial19): 0.01155
FRAP pore-forming activity ([1]; trial20): 0.002805
FRAP pore-forming activity ([1]; trial21): 0.01271
p (FRAP-70k-p), Average ([1]; 70 kDa, Average of replicates (Count: BAX 21; BAX + BimBH3 16; BAX + BimBH3 + EEE 19; + EEE-PB 8; + EEE+ABT-199 5)): 0.004165
FRAP pore-forming activity, average [2, 3]: 0.009408
FRAP pore-forming activity ([2]; 10 kDa F-dextran, trial1): 0.008947
FRAP pore-forming activity ([2]; 10 kDa F-dextran, trial2): 0.02404
FRAP pore-forming activity ([2]; 10 kDa F-dextran, trial3): 0.006842
FRAP pore-forming activity ([2]; 10 kDa F-dextran, trial4): 0.00807
FRAP pore-forming activity ([2]; 10 kDa F-dextran, trial5): 0.01263
FRAP pore-forming activity ([2]; 10 kDa F-dextran, trial6): 0.01719
FRAP pore-forming activity ([2]; 10 kDa F-dextran, trial7): 0.004737
FRAP pore-forming activity ([2]; 10 kDa F-dextran, trial8): 0.002982
FRAP pore-forming activity ([2]; 10 kDa F-dextran, trial9): 0.002807
FRAP pore-forming activity ([2]; 10 kDa F-dextran, trial10): 0.02035
FRAP pore-forming activity ([2]; 10 kDa F-dextran, trial11): 0.007719
FRAP pore-forming activity ([2]; 10 kDa F-dextran, trial12): 0.003684
FRAP pore-forming activity ([2]; 10 kDa F-dextran, trial13): 0.01684
FRAP pore-forming activity ([2]; 10 kDa F-dextran, trial14): 0.0007018
FRAP pore-forming activity ([2]; 10 kDa F-dextran, trial15): 0.003509
FRAP pore-forming activity ([2]; 10 kDa F-dextran, trial16): 0.009474
FRAP pore-forming activity, average ([2]; 10 kDa, Average of replicates (Count: BAX 16; BAX + BimBH3 19; BAX + BimBH3 + EEE 22; + EEE-PB 4; + EEE+ABT-199 5)): 0.009408

CC1(C)CCC(CN2CCN(c3ccc(C(=O)NS(=O)(=O)c4ccc(NCC5CCOCC5)c([N+](=O)[O-])c4)c(Oc4cnc5[nH]ccc5c4)c3)CC2)=C(c2ccc(Cl)cc2)C1 [ABT-199, Venetoclax, reference compound]
pore-forming activity / effect on BAX-induced membrane pores on GUV (in words) [1]: BimBH3 is released from EEE to induce BAX activation and membrane pores
FRAP pore-forming activity, average [1]: 0.0000762
FRAP pore-forming activity ([1]; trial1): 0.0000000
FRAP pore-forming activity ([1]; trial2): 0.000165
FRAP pore-forming activity ([1]; trial3): 0.0000000
FRAP pore-forming activity ([1]; trial4): 0.000165
FRAP pore-forming activity ([1]; trial5): 0.0000000
FRAP pore-forming activity ([1]; trial6): 0.0000000
FRAP pore-forming activity ([1]; trial7): 0.000165
FRAP pore-forming activity ([1]; trial8): 0.0000000
FRAP pore-forming activity ([1]; trial9): 0.0000000
FRAP pore-forming activity ([1]; trial10): 0.0000000
FRAP pore-forming activity ([1]; trial11): 0.000165
FRAP pore-forming activity ([1]; trial12): 0.000165
FRAP pore-forming activity ([1]; trial13): 0.000165
FRAP pore-forming activity, average [2, 3]: 0.0002024
FRAP pore-forming activity ([2]; 10 kDa F-dextran, trial1): 0.0000000
FRAP pore-forming activity ([2]; 10 kDa F-dextran, trial2): 0.0001754
FRAP pore-forming activity ([2]; 10 kDa F-dextran, trial3): 0.0000000
FRAP pore-forming activity ([2]; 10 kDa F-dextran, trial4): 0.0001754
FRAP pore-forming activity ([2]; 10 kDa F-dextran, trial5): 0.0000000
FRAP pore-forming activity ([2]; 10 kDa F-dextran, trial6): 0.0000000
FRAP pore-forming activity ([2]; 10 kDa F-dextran, trial7): 0.0001754
FRAP pore-forming activity ([2]; 10 kDa F-dextran, trial8): 0.0008772
FRAP pore-forming activity ([2]; 10 kDa F-dextran, trial9): 0.0007018
FRAP pore-forming activity ([2]; 10 kDa F-dextran, trial10): 0.0000000
FRAP pore-forming activity ([2]; 10 kDa F-dextran, trial11): 0.0001754
FRAP pore-forming activity ([2]; 10 kDa F-dextran, trial12): 0.0001754
FRAP pore-forming activity ([2]; 10 kDa F-dextran, trial13): 0.0001754

B1: EEE (protein)
chain: MAHAGRTGYDNREIVMKYIHYKLSQRGYEWDAGDVGAAPPGAAPAPGIFSSQPGHTPHPAASRDPVAREEPLQTPAAPGAAAGPALEPVPPVVHLTLRQAGDDFSRRYRRDFAEMSSQLHLTPFTARGRFATVVEELFRDGVNWGRIVAFFEFGGVMCVESVNREMSPLVDNIALWMTEYLNRHLHTWIQDNGGWDAFVELYGPSMRPLFDFSWLSL
modifications: Pacific Blue (maleimide) on the native cysteine 158; left off: His6, C-terminal, state not stated
pore-forming activity / effect on BAX-induced membrane pores on GUV (in words) [1]: neither BAX nor EEE, in the absence of pro-apoptotic BimBH3, is able to induce large membrane pores on GUV; also recorded: the pore-forming ability of BAX is clearly inhibited by the presence of EEE
FRAP pore-forming activity, average [1]: 0.0009376
FRAP pore-forming activity ([1]; trial1): 0.000495
FRAP pore-forming activity ([1]; trial2): 0.0006601
FRAP pore-forming activity ([1]; trial3): 0.000495
FRAP pore-forming activity ([1]; trial4): 0.0009901
FRAP pore-forming activity ([1]; trial5): 0.0008251
FRAP pore-forming activity ([1]; trial6): 0.000495
FRAP pore-forming activity ([1]; trial7): 0.0008251
FRAP pore-forming activity ([1]; trial8): 0.000495
FRAP pore-forming activity ([1]; trial9): 0.00132
FRAP pore-forming activity ([1]; trial10): 0.0008251
FRAP pore-forming activity ([1]; trial11): 0.0008251
FRAP pore-forming activity ([1]; trial12): 0.0008251
FRAP pore-forming activity ([1]; trial13): 0.001155
FRAP pore-forming activity ([1]; trial14): 0.0009901
FRAP pore-forming activity ([1]; trial15): 0.002475
FRAP pore-forming activity ([1]; trial16): 0.000495
FRAP pore-forming activity ([1]; trial17): 0.0006601
FRAP pore-forming activity ([1]; trial18): 0.000495
FRAP pore-forming activity ([1]; trial19): 0.002475
FRAP pore-forming activity ([1]; trial20): 0.0008251
FRAP pore-forming activity ([1]; trial21): 0.0006601
FRAP pore-forming activity ([1]; trial22): 0.00132
FRAP pore-forming activity, average [2, 3]: 0.001715
FRAP pore-forming activity ([2]; 10 kDa F-dextran, trial1): 0.003333
FRAP pore-forming activity ([2]; 10 kDa F-dextran, trial2): 0.0005263
FRAP pore-forming activity ([2]; 10 kDa F-dextran, trial3): 0.001579
FRAP pore-forming activity ([2]; 10 kDa F-dextran, trial4): 0.002807
FRAP pore-forming activity ([2]; 10 kDa F-dextran, trial5): 0.002982
FRAP pore-forming activity ([2]; 10 kDa F-dextran, trial6): 0.001754
FRAP pore-forming activity ([2]; 10 kDa F-dextran, trial7): 0.0005263
FRAP pore-forming activity ([2]; 10 kDa F-dextran, trial8): 0.002807
FRAP pore-forming activity ([2]; 10 kDa F-dextran, trial9): 0.0005263
FRAP pore-forming activity ([2]; 10 kDa F-dextran, trial10): 0.0005263
FRAP pore-forming activity ([2]; 10 kDa F-dextran, trial11): 0.0005263
FRAP pore-forming activity ([2]; 10 kDa F-dextran, trial12): 0.001053
FRAP pore-forming activity ([2]; 10 kDa F-dextran, trial13): 0.0005263
FRAP pore-forming activity ([2]; 10 kDa F-dextran, trial14): 0.002632
FRAP pore-forming activity ([2]; 10 kDa F-dextran, trial15): 0.001053
FRAP pore-forming activity ([2]; 10 kDa F-dextran, trial16): 0.002632
FRAP pore-forming activity ([2]; 10 kDa F-dextran, trial17): 0.001404
FRAP pore-forming activity ([2]; 10 kDa F-dextran, trial18): 0.003684
